Laboratory results as given in patent EP0502987B1, “ACYLATED BRADYKININ ANTAGONISTS AND USES THEREFOR” (TRUSTEES OF BOSTON UNIVERSITY, priority 1989, dated 1994).
Square brackets hold non-standard residues; d marks the D form. Peptide text beside a SMILES is read from it. Hyp = O=C(O)[C@@H]1C[C@@H](O)CN1; 2Thi = N[C@@H](Cc1cccs1)C(=O)O

Test system: vasodepressor response of exogenous bradykinin
Assay: Inhibition of the vasodepressor response to exogenous bradykinin in awake rats
Type: in vivo, Wistar rats
Method: An adamantane acetic acid-modified bradykinin analog was synthesized by the solid-phase method described in Example 1. The analog designed by Stewart et al. was also synthesized and used as a control. The control (or model) and test analogs had the following structure: Model: D-Arg-Arg-Pro-Hyp-Gly-Thi-Ser-D-Phe-Thi-Arg Test: [formula] The antagonistic potency of the analogs was assessed by their ability to inhibit the vasodepressor response of exogenous bradykinin in awake rats.
Intact male Wistar rats (Charles River Breeding Laboratories, Wilmington, MA, U.S.A.) weighing 225-250 g were used and maintained on a regular Purina Rat Chow diet and tap water in a room at constant temperature (23 ± 1°C) with 12 hour dark/12 hour light cycles. One day before the experiment, the right carotid and the iliac artery in the rats were catheterized with polyethylene tubing (PE 50) under light ether anesthesia. A "Y" type connection was connected to the carotid artery catheter with two ends: one for injecting bradykinin and the other for infusing the bradykinin analogs. All of the catheters were externalized subcutaneously at the back of the neck. On the day of the experiment, the rats were maintained conscious and unrestrained in plastic cages. Arterial pressure (AP), mean arterial pressure (MAP) and heart rate (HR) were monitored through a Gould-Statham P23 ID pressure transducer (Gould, Cleveland, OH) connected to the iliac catheter and recorded on a Gould 2200S paper chart recorder. A half-hour period was allowed before the actual initiation of the experiment. […]
The effectiveness of each analog was tested by regression analysis of the data obtained in each rat, using a logarithmic transformation of the linear portion of each dose-response curve to calculate the ED₂₂ and ED₉₀ values. The comparison between the two analogs at the same dose was determined using the Students Nonpaired T Test. […]
The pA₂ is the most commonly used parameter to quantitatively express the potency of an antagonist. […]

N=C(N)NCCC[C@@H](N)C(=O)N[C@@H](CCCNC(=N)N)C(=O)N1CCC[C@H]1C(=O)N1C[C@H](O)C[C@H]1C(=O)NCC(=O)N[C@@H](Cc1cccs1)C(=O)N[C@@H](CO)C(=O)N[C@H](Cc1ccccc1)C(=O)N[C@@H](Cc1cccs1)C(=O)N[C@@H](CCCNC(=N)N)C(=O)O [Model Analog, D-Arg-Arg-Pro-Hyp-Gly-Thi-Ser-D-Phe-Thi-Arg] (H-[dR]RP[Hyp]G[2Thi]S[dF][2Thi]R-OH)
ED₂₂ (dose of analog infused (intracarotid) which inhibits 22% of the vasodepressor response to 250 ng of BK, conscious rats pretreated with enalapril 1 mg/kg, 7 rats, mean ± SE): 1.49 ± 0.29 µg/min
ED₉₀ (dose of analog infused (intracarotid) which inhibits 90% of the vasodepressor response to 250 ng of BK, conscious rats pretreated with enalapril 1 mg/kg, 7 rats, mean ± SE): 142.50 ± 26.44 µg/min
pA₂ (anti-vasodepressor potency) (negative logarithm of ED value (ED₂₂) divided by estimated volume of distribution (67ml/kg)): 7.17±0.11
